Reference: PMC6201879, “N-substituted phenylbenzamides of the niclosamide chemotype attenuate obesity related changes in high fat diet fed mice” (PLoS ONE, 2018)
Where two headings read alike, the source gives them in different places.

Tests used:
[1] = test system: Salmonella typhimurium TA100; conditions: for Mean Revertant Colony Counts TA-100 SP9+: with S9; for Mean Revertant Colony Counts TA-100 S9-: without S9; for fold increase in the mean number of revertant colonies, TA100: any concentration tested, vs negative control
PH5CH8 liver cells = assay: High-throughput hepatic de novo lipogenesis (DNL) assay, high content imaging of steatotic phenotype; assay type: cell-based, human; conditions: for IC50: Homo sapiens
[2] = Metabolic stability in mouse liver microsomes; assay type: in vitro ADME; conditions: for Remaining Percentage of 60 min (%), Mouse, Tested Sample: 0.5mg/ml microsomes and 1mM NADPH; for Remaining Percentage of 60 min (%), Mouse, Negative Control: 0.5mg/ml microsomes without NADPH; for Remaining Percentage of 60 min (%), Mouse, Heat-inactivated Control: heat inactivated microsomes without NADPH
Procedure: (§1) Three experiments were performed with 1) 0.5mg/ml microsomes and 1mM NADPH, 2) 0.5mg/ml microsomes without NADPH and 3) 0.5mg/ml heat inactivated microsomes without NADPH in 100mM phosphate buffer, containing 5mM magnesium chloride. […] At the indicated time points, 50μl samples were removed and stopped by addition of 4 volumes of cold acetonitrile with internal standards, 100nM alprazolam, 200nM labetalol and 2μM ketoprofen. The samples were centrifuged at 3,220 g for 40 minutes and aliquots of 100μl were subsequently diluted with 100μl of ultra-pure water and analyzed by LC/MS/MS using a (Shimadzu corporation) LC system coupled to a Shimadzu Triple Quad 5500 mass spectrometer with an ESI interface. The LC system used a Waters XSelect HSS T3 C18, 2.5μm, 2.1 x 50 mm column eluted with one of two methods using mobile phases A (water, 0.1% formic acid) and B (acetonitrile, 0.1% formic acid). […] The Shimadzu Triple Quad 5500 MS was operated with the following parameters: Ion source: Turbo spray; Ionization mode: ESI; Scan type: MRM; Collision gas: 10 L/min; Curtain gas: 30 L/min; Nebulize gas: 50 L/min; Auxiliary gas: 50 L/min; Temperature: 500°C; Ionspray voltage: +5500 V (positive MRM). All experiments were performed in duplicate. Data were analyzed using Microsoft excel, and peak areas were determined from extracted ion chromatograms.

[3] = Pharmacokinetic profile in Sprague Dawley rats (IV and PO); assay type: in vivo; conditions: Mean + SD (n = 3); for half-life / Cmax / bioavailability: Sprague Dawley; for half-life / Cmax / bioavailability / C0 / AUC(0-inf) / AUC(0-t) / clearance / MRT inf / Tmax: rat, plasma; for bioavailability: read-out: F (oral bioavailability); for clearance: read-out: Cl_obs
Procedure: To evaluate the pharmacokinetic profile by oral (PO) and intravenous (IV) administration routes we used 6 to 8-week old Sprague Dawley rats weighing approximately 200-330g (n = 3 per study group). Compounds were administered at 1mg/kg in 5% Cremophor EL and 20% PEG400 in water for IV and 5mg/kg in PBS for PO. All dose formulation was performed at room temperature. Animals were fasted overnight prior to dosing and were re-fed approximately 4 hours after dosing. For PO, 0.2ml of blood was collected pre- and 0.5, 1, 2, 4 8 12 and 24-hours after drug delivery and transferred to EDTA-K2 BD Vacutainer plastic blood collection tubes. IV samples were collected pre-injection and 0.08, 0.25, 0.5, 1, 2, 4, 8, 12, 24-hours post injection. Blood samples were centrifuged at 2,000 g for 5 minutes at 4°C to obtain plasma. Plasma samples were stored at -75±15°C prior to analysis and then thawed and analyzed by LC-MS/MS method and pharmacokinetic calculations were performed using WinNolin (Phoenix, version 6.4). For IV administration: T1/2, C0, AUClast, AUCinf, MRT, Cl, Vss, and number of points for regression were determined. For PO administration: T1/2, Cmax, Tmax, AUCinf, AUClast, F(0-∞) %, and number of points for regression were determined. Data are reported as mean and standard deviation.

[4] = test system: HEK293 cells stably transduced with the human OCT3 transporter; assay: Cellular oxygen consumption rate (OCR), MitoXpress Xtra; assay type: cell-based; conditions: HEK293 cells expressing human OCT3
Procedure: Oxygen consumption rate experiments were performed by ZenBio, Inc (RTP, NC). HEK293 cells stably transduced with the human OCT3 transporter were plated in black-walled microclear plates (Greiner-BioOne) at 60,000 cells per well in growth medium. Cells were incubated overnight to allow attachment before growth medium was removed and replaced with 150μL of assay medium containing compound dilutions. Four concentrations of each compound were prepared and transferred to the empty wells. Control wells contained assay medium only or assay medium containing […] (FCCP) at 1μM. Ten μL of MitoXpress Xtra reagent was added to each test well and 100μL of pre-warmed mineral oil was overlaid in each well to create a seal. The plates were immediately read on a FLUOstar Omega (BMG) using dual read Time Resolved Fluorescence (TR-F) for 2 hours, with measurements taken every 2 minutes using 340nm and 650nm as excitation and emission wavelengths respectively. For lifetime analysis, two measurements per well were taken: 1) delay of 30μs, with a window of 30μs; and 2) delay of 70μs with a window of 30μs. Background TRF values were subtracted from all readings. A ratiometric analysis was performed to determine changes in the Lifetime fluorescence signal: Lifetime (μs)[T] = (D2-D1)/ln(W1/W2), where D is delay; W is fluorescence window value at each time point. Lifetime slopes were calculated using each Lifetime measurement over time. Data are presented as mean ± standard error (SE). The differences between the control (DMSO) and compound treated wells were analyzed using the Student’s t-test. A value of p≤0.05 was considered statistically significant. […]

[5] = Metabolic stability in human liver microsomes; assay type: in vitro ADME; conditions: for Remaining Percentage of 60 min (%), Human, Tested Sample: 0.5mg/ml microsomes and 1mM NADPH; for Remaining Percentage of 60 min (%), Human, Negative Control: 0.5mg/ml microsomes without NADPH; for Remaining Percentage of 60 min (%), Human, Heat-inactivated Control: heat inactivated microsomes without NADPH
Procedure: as §1

[6] = PH5CH8 liver cells, 10-point dose response between 1μM and 1.9nM, read-out: IC50 (uM), inhibition of steatotic phenotype in DNL assay
[7] = S1 Table, SAR for N-Substituted Phenylbenzamides, read-out: IC50
[8] = S1 Table, SAR for N-Substituted Phenylbenzamides
[9] = iv, 1 mg/kg, IV 1 mg/kg, read-out: T 1/2 (IV) (converted)
[10] = po, 5 mg/kg, PO 5 mg/kg in PBS, read-out: T 1/2 (PO) (converted)
[11] = po, 5 mg/kg, PO 5 mg/kg vs IV 1 mg/kg
[12] = IV 1 mg/kg, read-out: AUC Inf (IV)
[13] = IV 1 mg/kg, read-out: AUC last (IV)
[14] = IV 1 mg/kg, read-out: MRT Inf_obs (IV)
[15] = PO 5 mg/kg in PBS, read-out: AUC Inf (PO)
[16] = PO 5 mg/kg in PBS, read-out: AUC last (PO)
[17] = PO 5 mg/kg in PBS, read-out: MRT Inf_obs (PO)

CC(C)(C)c1ccc(O)c(C(=O)Nc2ccc(C(=O)O)cc2Cl)c1 [Compound 500200, 4-[(5-tert-butyl-2-hydroxybenzene)amido]-3-chlorobenzoic acid]
Mean Revertant Colony Counts TA-100 SP9+ ([1]; 1.5 ug/Well): 18.7
Mean Revertant Colony Counts TA-100 S9- ([1]; 1.5 ug/Well): 32.3
Mean Revertant Colony Counts TA-100 SP9+ ([1]; 4 ug/Well): 19.7
Mean Revertant Colony Counts TA-100 S9- ([1]; 4 ug/Well): 25.7
Mean Revertant Colony Counts TA-100 SP9+ ([1]; 10 ug/Well): 22.0
Mean Revertant Colony Counts TA-100 S9- ([1]; 10 ug/Well): 26.7
Mean Revertant Colony Counts TA-100 SP9+ ([1]; 25 ug/Well): 22.0
Mean Revertant Colony Counts TA-100 S9- ([1]; 25 ug/Well): 28.0
Mean Revertant Colony Counts TA-100 SP9+ ([1]; 64 ug/Well): 20.3
Mean Revertant Colony Counts TA-100 S9- ([1]; 64 ug/Well): 26.3
Mean Revertant Colony Counts TA-100 SP9+ ([1]; 160 ug/Well): 27.7
Mean Revertant Colony Counts TA-100 S9- ([1]; 160 ug/Well): 24.0
Mean Revertant Colony Counts TA-100 SP9+ ([1]; 400 ug/Well): 18.3
Mean Revertant Colony Counts TA-100 S9- ([1]; 400 ug/Well): 29.7
Mean Revertant Colony Counts TA-100 SP9+ ([1]; 1000 ug/Well): 8.0
Mean Revertant Colony Counts TA-100 S9- ([1]; 1000 ug/Well): 16.3
fold increase in the mean number of revertant colonies, TA100 [1]: < 2 fold
IC50 (PH5CH8 liver cells; [6]): 0.27 µM
IC50 (PH5CH8 liver cells; [7]): 0.034 µM
Active/Inactive (PH5CH8 liver cells; [8]): Active
Remaining Percentage of 60 min (%), Mouse, Tested Sample [2]: 101.2%
Remaining Percentage of 60 min (%), Mouse, Negative Control [2]: 111.5%
Remaining Percentage of 60 min (%), Mouse, Heat-inactivated Control [2]: 102.7%
AUC _%Extrap_obs (IV) ([3]; IV 1 mg/kg): 0.13 +/- 0.016%
AUCl ast/D (IV) ([3]; IV 1 mg/kg): 1940 ± 166 ng·kg·h/mL/mg
V ss_obs ([3]; IV 1 mg/kg): 0.13 ± 0.020 L/kg
AUC _%Extrap_obs (PO) ([3]; PO 5 mg/kg in PBS): 1.94 +/- 1.27%
AUC last / D (PO) ([3]; PO 5 mg/kg in PBS): 43.3 ± 25.3 ng·kg·h/mL/mg
half-life [3, 9]: 1.66 ± 0.48 h
Cmax ([3]; po, 5 mg/kg, PO 5 mg/kg in PBS): 50.8 ± 35.7 ng/mL
half-life [3, 10]: 1.51 ± 0.4 h
bioavailability [3, 11]: 2.26 ± 1.29%
C0 ([3]; IV 1 mg/kg): 13800 ± 2610 ng/mL
AUC(0-inf) [3, 12]: 1940 ± 166 ng·h/mL
AUC(0-t) [3, 13]: 1940 ± 166 ng·h/mL
clearance ([3]; IV 1 mg/kg): 8.63 ± 0.78 mL/min/kg
MRT inf [3, 14]: 0.26 ± 0.048 h
Tmax ([3]; PO 5 mg/kg in PBS): 3.33 ± 1.15 h
AUC(0-inf) [3, 15]: 220 ± 1250 ng·h/mL
AUC(0-t) [3, 16]: 216 ± 127 ng·h/mL
MRT inf [3, 17]: 4.04 ± 0.68 h
change in respiration / oxygen consumption rate (OCR) ([4]; compared to DMSO control, 2 hours): no change in respiration
Remaining Percentage of 60 min (%), Human, Tested Sample [5]: 84.5%
Remaining Percentage of 60 min (%), Human, Negative Control [5]: 110.2%
Remaining Percentage of 60 min (%), Human, Heat-inactivated Control [5]: 96.6%

CC(C)(C)c1cc(C(=O)Nc2ccc(C(=O)O)cc2Cl)c(O)c(C(C)(C)C)c1 [Compound 600453, 3-Chloro-4-[(3,5-di-tert-butyl-2-hydroxybenzene)amido]benzoic acid]
Mean Revertant Colony Counts TA-100 SP9+ ([1]; 1.5 ug/Well): 17.3
Mean Revertant Colony Counts TA-100 S9- ([1]; 1.5 ug/Well): 35.0
Mean Revertant Colony Counts TA-100 SP9+ ([1]; 4 ug/Well): 21.3
Mean Revertant Colony Counts TA-100 S9- ([1]; 4 ug/Well): 30.0
Mean Revertant Colony Counts TA-100 SP9+ ([1]; 10 ug/Well): 27.0
Mean Revertant Colony Counts TA-100 S9- ([1]; 10 ug/Well): 33.3
Mean Revertant Colony Counts TA-100 SP9+ ([1]; 25 ug/Well): 34.0
Mean Revertant Colony Counts TA-100 S9- ([1]; 25 ug/Well): 24.0
Mean Revertant Colony Counts TA-100 SP9+ ([1]; 64 ug/Well): 31.7
Mean Revertant Colony Counts TA-100 S9- ([1]; 64 ug/Well): 26.3
Mean Revertant Colony Counts TA-100 SP9+ ([1]; 160 ug/Well): 24.3
Mean Revertant Colony Counts TA-100 S9- ([1]; 160 ug/Well): 21.3
Mean Revertant Colony Counts TA-100 SP9+ ([1]; 400 ug/Well): 29.3
Mean Revertant Colony Counts TA-100 S9- ([1]; 400 ug/Well): 8.0
Mean Revertant Colony Counts TA-100 SP9+ ([1]; 1000 ug/Well): 15.7
Mean Revertant Colony Counts TA-100 S9- ([1]; 1000 ug/Well): 2.7
fold increase in the mean number of revertant colonies, TA100 [1]: < 2 fold
IC50 (PH5CH8 liver cells; [6]): 0.14 µM
IC50 (PH5CH8 liver cells; [7]): 0.091 µM
Active/Inactive (PH5CH8 liver cells; [8]): Active
Remaining Percentage of 60 min (%), Mouse, Tested Sample [2]: 88.1%
Remaining Percentage of 60 min (%), Mouse, Negative Control [2]: 109.7%
stability in MLM ([2]; 60 minutes): stable
Remaining Percentage of 60 min (%), Mouse, Heat-inactivated Control [2]: 91.4%
AUC _%Extrap_obs (IV) ([3]; IV 1 mg/kg): 0.50 +/-0.114%
AUCl ast/D (IV) ([3]; IV 1 mg/kg): 5400 ± 683 ng·kg·h/mL/mg
V ss_obs ([3]; IV 1 mg/kg): 0.60 ± 0.076 L/kg
AUC _%Extrap_obs (PO) ([3]; PO 5 mg/kg in PBS): 2.22 +/- 1.36%
AUC last / D (PO) ([3]; PO 5 mg/kg in PBS): 3390 ± 551 ng·kg·h/mL/mg
T 1/2 (PO) ([3]; PO 5 mg/kg in PBS, 5 mg/kg): 3.91 ± 0.75 h
F (oral bioavailability) ([3]; PO 5 mg/kg vs IV 1 mg/kg): 63.91 +/- 10.5%
half-life [3, 9]: 3.68 ± 0.13 h
Cmax ([3]; po, 5 mg/kg, PO 5 mg/kg in PBS): 2050 ± 558 ng/mL
half-life [3, 10]: 3.9 h
bioavailability [3, 11]: 64%
C0 ([3]; IV 1 mg/kg): 2816 ± 7.02 ng/mL
AUC(0-inf) [3, 12]: 5420 ± 689 ng·h/mL
AUC(0-t) [3, 13]: 5400 ± 683 ng·h/mL
clearance ([3]; IV 1 mg/kg): 3.11 ± 0.42 mL/min/kg
MRT inf [3, 14]: 3.22 ± 0.32 h
Tmax ([3]; PO 5 mg/kg in PBS): 4 h
AUC(0-inf) [3, 15]: 17300 ± 2850 ng·h/mL
AUC(0-t) [3, 16]: 16900 ± 2750 ng·h/mL
MRT inf [3, 17]: 7.4 ± 0.44 h
concentration dependence of OCR change ([4]; four concentrations): significantly decreased OCR at all concentrations above 300nM
Remaining Percentage of 60 min (%), Human, Tested Sample [5]: 58.8%
Remaining Percentage of 60 min (%), Human, Negative Control [5]: 92.2%
Remaining Percentage of 60 min (%), Human, Heat-inactivated Control [5]: 93.7%
